Measured values from patent US11058635B1, “Oral administration of 5-FU in a gelling nanosuspension for targeted delivery to treat colorectal cancers” (King Abdulaziz University, priority 2020, dated 2021).

Assay: In vitro drug release, pH-profile dialysis bag method
Type: physicochemical
Details: for overall pH-profile percentage release more than NAH-CRG-FU by: difference over 8 hrs
From the text: The ultimate goals were to develop a formula with in-soluble gel forming ability in the gastric media with good coherence, to form a sedimented gel with a density >1 in the stomach, to increase the gastric emptying rate and to avoid the gastric adverse effects and metabolism of FU by keeping a minimal gastric release or coating it. On other hand, the formula needed to dissolve and release the drug and gel in the simulated intestinal media, especially the colonic area. The main target was to design a system that was able to inhibit release of the drug in the stomach (i.e., release at a lower rate than the release rate in the intestinal-colonic area). Formulation was prepared according to Table 2 and the pattern of 5-FU release in the pH-profile differed from that of free 5-FU. After preparation of different formulations with manipulation of NA amounts (18, 36 and 72 mg/mL) and CRG types (CRGk and CRGL), the drug release optimization confirmed that the optimum formulation with respect to FU release curve and parameters was the NAH-CRG-FU shown in Table 2 and FIG. 6. […] The comparisons between the release patterns of the NAH-CRG-FU formulation and free drug were done using the simulated gastric release percentage (%)-first 2 hrs, simulated intestinal-colonic release percentage-subsequent 6 hrs (summation of the proximal, distal intestine and colon percentage simulated release patterns), mean dissolution time (MDT) of simulated pre-intestinal region (gastric) and simulated intestine-colonic area. Furthermore, mean dissolution times for 1st 2 hrs of pre-intestinal (Pre-intestinal MDT) and from the 2nd to 8th hr of the release profile (Intestinal-colonic MDT) were obtained by the following equation (Bani-Jaber and Abdullah 2020, Costa and Lobo 2001).
[formula] wherein (i) expressed the release sample numbers, (n) referred to the number of release times, (t) was the mid-point time in the interval (ti-1-ti), (ΔM) was the released amount of drug in the interval (ti-1-ti). The MDT larger values could indicate a slower drug release rate. The predicted rate of release equates to the rate of dissolution, and this rate has a direct effect on the number of daily oral doses and any adverse effects associated therewith.
5-FU was prepared in a formulation of the NAH-CGR-FU gelling nanosuspension, as described in the previous Examples. Data from Table 2 was used to prepare a nanosuspension volume of 20 mL. The dose was loaded into a dialysis bag having a cut-off of 12000-14000 Dalton (Spectra/Por® 4-Dialysis membrane, USA). The dialysis bag was placed into a beaker containing 300 mL of release media. The bags were exposed to 0.1N HCl to simulate gastric media having a pH 1.2 for 2 hr, followed by simulated proximal intestine media, which was a phosphate buffer with pH 6.5 for 2 hr. This was followed by media simulating the media of the distal area of the small intestine, which was a phosphate buffer at a pH 6.8 for 2 hr. Finally, the dialysis bags were transferred to a phosphate buffer media having a pH 8 to simulate the media of a descending colon for 2 hrs. The sequential exposure in the different pH media was used to construct a pH dissolution profile. The temperature was constantly controlled at 37±0.5° C. in a water bath shaker of 75 rpm speed. To maintain sink conditions, the dissolution media underwent total replacement with a fresh medium every hour. After drug release optimization of the NA amount and CRG type was determined, the optimum formulation in-soluble gel that was formed in the acidic media was evaluated for the onset of formation and the extent of sedimentation.

With `O=c1[nH]cc(F)c(=O)[nH]1` [Free 5-FU, 5-fluorouracil] as the molecule, how does the “Gastric % Release” value (0.1N HCl pH 1.2, first 2 hr, 37 C, 75 rpm) read?
The value was 56.60 ± 0.0051%.

And the “higher gastric percentage release than NAH-CRG-FU by” value (difference free 5-FU minus NAH-CRG-FU, first 2 hrs)?
The value was 31.55%.

And the “higher intestinal-colonic percentage release than NAH-CRG-FU by” value (difference free 5-FU minus NAH-CRG-FU, subsequent 6 hrs)?
Its value is 30.68%.

What about the “overall pH-profile percentage release more than NAH-CRG-FU by” value (listed as 5-FU alone) of the same molecule?
The value was 62.23%.

And the “overall pH-profile percentage release more than NAH-CRG-FU by” value (listed as 5-FU free)?
The value was 62.2%.

What about the “Pre-Intestinal MDT” value (mean dissolution time, 1st 2 hrs, pH 1.2, n = 3 ± SD) of the same molecule?
Its value is 0.23 ± 0.0011 h.

And the “Intestinal-Colonic MDT” value (mean dissolution time, 2nd to 8th hr, pH 6.5, 6.8, 8, n = 3 ± SD)?
Its value is 1.75 ± 0.0051 h.

What about the “released after 8 hrs of the pH-profile study” value (pH-profile 1.2-8, 8 hrs) of the same molecule?
The value was 95.97%.

What about the “Proximal Intestine % Release” value (phosphate buffer pH 6.5, 2 hr) of the same molecule?
The value was 23.04 ± 0.0022%.

And the “Distal Intestine % Release” value (phosphate buffer pH 6.8, 2 hr)?
Its value is 9.08 ± 0.0019%.

And the “Colon % Release” value (phosphate buffer pH 8, 2 hr)?
Its value is 7.26 ± 0.0014%.

And the “Intestinal-Colonic % Release” value (subsequent 6 hrs, summation of proximal, distal intestine and colon)?
Its value is 39.37 ± 0.0071%.
